Results reported in patent US20090143279A1 (priority 2007, published 2009).
Read-outs that look alike come from different tables or passages of the source. Where a SMILES comes first, the peptide text is derived from it.

Tests used:
[1] = system: mitochondrial membrane potential; type: cell-based, mouse; details: for ΔΨm (composite Z-score): normalized score vs mock-treated (DMSO) wells
reactive oxygen species = type: cell-based, mouse; details: for ROS (composite Z-score): normalized score vs mock-treated (DMSO) wells
OXPHOS gene expression = type: cell-based, mouse; details: for GE-HTS (composite Z-score): normalized score vs mock-treated (DMSO) wells
nuOXPHOS transcripts = type: cell-based, mouse; details: for nucOX (composite Z-score): normalized score vs mock-treated (DMSO) wells
mtOXPHOS transcripts = type: cell-based, mouse; details: for mitoOX (composite Z-score): normalized score vs mock-treated (DMSO) wells
cytochrome c = type: cell-based, mouse; details: for cyt c (composite Z-score): normalized score vs mock-treated (DMSO) wells
C2C12 myotubes = details: for Viability (composite Z-score): normalized score vs mock-treated (DMSO) wells
[2] = system: cellular dehydrogenase activity; details: for MTT (composite Z-score): normalized score vs mock-treated (DMSO) wells
[3] = composite Z-score vs DMSO, Conc 10.24 μM
[4] = composite Z-score vs DMSO, Conc 20 μM
[5] = composite Z-score vs mock-treated (DMSO) wells, Conc 20 μM
[6] = normalized composite Z-score vs mock-treated (DMSO) wells, Conc 20 μM
[7] = composite Z-score vs DMSO wells, Conc 20 μM

Structure (SMILES): C/C=C(/C)C(=O)O[C@H]1Cc2c(ccc3ccc(=O)oc23)OC1(C)C [selinidin]
- ΔΨm (composite Z-score) ([1]; Conc 20 μM): 0.013
- ROS (composite Z-score) (reactive oxygen species; Conc 20 μM): 0.838
- GE-HTS (composite Z-score) (OXPHOS gene expression; Conc 20 μM): −0.347
- nucOX (composite Z-score) (nuOXPHOS transcripts; Conc 20 μM): −0.328
- mitoOX (composite Z-score) (mtOXPHOS transcripts; Conc 20 μM): −0.285
- cyt c (composite Z-score) (cytochrome c; Conc 20 μM): −0.478
- Viability (composite Z-score) (C2C12 myotubes; Conc 20 μM): 0.773
- MTT (composite Z-score) ([2]; Conc 20 μM): −0.359

Structure (SMILES): C[N+]1(CCCCC[N+]2(C)CCCC2)CCCC1 [pentolinium]
- ΔΨm [1, 3]: −0.024
- ΔΨm [1, 4]: 0.209
- ROS (reactive oxygen species; [3]): 3.608
- ROS (reactive oxygen species; [4]): 0.392
- GE-HTS (OXPHOS gene expression; [3]): 0.521
- GE-HTS (OXPHOS gene expression; [4]): −1.000
- nucOX (nuOXPHOS transcripts; [3]): 0.489
- nucOX (nuOXPHOS transcripts; [4]): −0.840
- mitoOX (mtOXPHOS transcripts; [3]): 0.444
- mitoOX (mtOXPHOS transcripts; [4]): −1.080
- cyt c (cytochrome c; [3]): 0.387
- cyt c (cytochrome c; [4]): −0.703
- Viability (C2C12 myotubes; [3]): 0.213
- Viability (C2C12 myotubes; [4]): −0.568
- MTT [2, 3]: 0.254
- MTT [2, 4]: −0.771

Structure (SMILES): COc1cc2ccc(=O)oc2c2ccoc12 [sphondin]
- ΔΨm [1, 5]: 0.136
- ROS (reactive oxygen species; [5]): 1.692
- GE-HTS (OXPHOS gene expression; [5]): −0.684
- nucOX (nuOXPHOS transcripts; [5]): −0.605
- mitoOX (mtOXPHOS transcripts; [5]): −0.666
- cyt c (cytochrome c; [5]): 0.091
- Viability (C2C12 myotubes; [5]): −0.790
- MTT [2, 5]: −0.661

Structure (SMILES): COc1ccc([C@H]2Oc3cc(OC)cc(OC)c3C[C@H]2O)cc1 [epiafzelechin trimethyl ether]
- ΔΨm [1, 6]: −0.324
- ROS (reactive oxygen species; [6]): −0.190
- GE-HTS (OXPHOS gene expression; [6]): 0.019
- nucOX (nuOXPHOS transcripts; [6]): −0.134
- mitoOX (mtOXPHOS transcripts; [6]): 0.350
- cyt c (cytochrome c; [6]): 1.099
- Viability (C2C12 myotubes; [6]): 0.557
- MTT [2, 6]: −0.884

Structure (SMILES): C=C(C)[C@@H]1[C@H]2OC(=O)[C@@H]1[C@]1(O)C[C@H]3O[C@]34C(=O)O[C@H]2[C@]14C [picrotoxinin]
- ΔΨm [1, 7]: −1.064
- ROS (reactive oxygen species; [7]): 1.094
- GE-HTS (OXPHOS gene expression; [7]): −0.512
- nucOX (nuOXPHOS transcripts; [7]): −0.408
- mitoOX (mtOXPHOS transcripts; [7]): −0.551
- cyt c (cytochrome c; [7]): 0.172
- Viability (C2C12 myotubes; [7]): −1.116
- MTT [2, 7]: −1.611

Structure (SMILES): Oc1ccc2c(c1)OC[C@H]1c3cc4c(cc3O[C@@H]21)OCO4 [maackiain]
- ΔΨm (composite Z-score) ([1]; Conc 20 μM): 0.391
- ROS (composite Z-score) (reactive oxygen species; Conc 20 μM): 0.879
- GE-HTS (composite Z-score) (OXPHOS gene expression; Conc 20 μM): −0.561
- nucOX (composite Z-score) (nuOXPHOS transcripts; Conc 20 μM): −0.285
- mitoOX (composite Z-score) (mtOXPHOS transcripts; Conc 20 μM): −1.049
- cyt c (composite Z-score) (cytochrome c; Conc 20 μM): 0.969
- Viability (composite Z-score) (C2C12 myotubes; Conc 20 μM): −1.052
- MTT (composite Z-score) ([2]; Conc 20 μM): −0.578

Structure (SMILES): COc1ccc2c(c1OC)C(=O)O[C@@H]2[C@H]1c2cc3c(cc2CCN1C)OCO3 [1s,9r-hydrastine]
- ΔΨm [1]: −0.849
- ROS (reactive oxygen species; [4]): −0.029
- GE-HTS (OXPHOS gene expression; [4]): −0.152
- nucOX (nuOXPHOS transcripts; [4]): −0.041
- mitoOX (mtOXPHOS transcripts; [4]): −0.341
- cyt c (cytochrome c; [4]): 0.359
- Viability (C2C12 myotubes; [4]): 0.650
- MTT [2, 4]: −0.539

Structure (SMILES): CC(C)C[C@H](NC(=O)CN)C(=O)N[C@@H](Cc1ccccc1)C(=O)O [glycylleucylphenylalanine] (H-Gly-Leu-Phe-OH)
- ΔΨm [1, 4]: −0.774
- ROS (reactive oxygen species; [4]): 0.973
- GE-HTS (OXPHOS gene expression; [4]): −0.095
- nucOX (nuOXPHOS transcripts; [4]): 0.033
- mitoOX (mtOXPHOS transcripts; [4]): −0.322
- cyt c (cytochrome c; [4]): −0.182
- Viability (C2C12 myotubes; [4]): −0.254
- MTT [2, 4]: −0.344

Structure (SMILES): CC(=O)OCC(=O)[C@@]1(O)CC[C@H]2[C@@H]3C[C@H](C)C4=CC(=O)C=C[C@]4(C)[C@H]3[C@@H](O)C[C@@]21C [6alpha-methylprednisolone acetate]
- ΔΨm (composite Z-score) ([1]; Conc 20 μM): −0.462
- ROS (composite Z-score) (reactive oxygen species; Conc 20 μM): 0.321
- GE-HTS (composite Z-score) (OXPHOS gene expression; Conc 20 μM): −0.130
- nucOX (composite Z-score) (nuOXPHOS transcripts; Conc 20 μM): −0.518
- mitoOX (composite Z-score) (mtOXPHOS transcripts; Conc 20 μM): 0.750
- cyt c (composite Z-score) (cytochrome c; Conc 20 μM): −0.364
- Viability (composite Z-score) (C2C12 myotubes; Conc 20 μM): −0.480
- MTT (composite Z-score) ([2]; Conc 20 μM): −1.192

Structure (SMILES): COC1=C(OC)C(=O)C(C/C=C(\C)CC/C=C(\C)CC/C=C(\C)CC/C=C(\C)CC/C=C(\C)CC/C=C(\C)CC/C=C(\C)CC/C=C(\C)CC/C=C(\C)CCC=C(C)C)=C(C)C1=O [coenzyme Q10]
- ΔΨm (composite Z-score) ([1]; Conc 20 μM): 0.920
- ROS (composite Z-score) (reactive oxygen species; Conc 20 μM): 1.179
- GE-HTS (composite Z-score) (OXPHOS gene expression; Conc 20 μM): 0.366
- nucOX (composite Z-score) (nuOXPHOS transcripts; Conc 20 μM): 0.391
- mitoOX (composite Z-score) (mtOXPHOS transcripts; Conc 20 μM): 0.226
- cyt c (composite Z-score) (cytochrome c; Conc 20 μM): 0.636
- Viability (composite Z-score) (C2C12 myotubes; Conc 20 μM): 0.166
- MTT (composite Z-score) ([2]; Conc 20 μM): −1.758

Structure (SMILES): C[C@H]1C[C@@H]2[C@H]([C@@H](O)C[C@@]3(C)[C@H]2CC[C@]3(O)C(=O)CO)[C@@]2(C)C=CC(=O)C=C12 [methylprednisolone]
- ΔΨm [1]: −0.375
- ROS (reactive oxygen species): 0.133
- GE-HTS (OXPHOS gene expression): −0.220
- nucOX (nuOXPHOS transcripts): −0.138
- mitoOX (mtOXPHOS transcripts): −0.270
- cyt c (cytochrome c): −0.102
- Viability (C2C12 myotubes): −0.631
- MTT [2]: −1.014

Structure (SMILES): CC(=O)O[C@@H]1CC(=O)[C@@]2(C)C(CC(=O)[C@]3(C)C2CC[C@@]2(C)[C@H](c4ccoc4)OC(=O)C4OC423)C1(C)C (some centres unmarked) [1,7-dideacetoxy-1,7-dioxokhivorin]
- ΔΨm [1, 5]: −0.535
- ROS (reactive oxygen species; [5]): 0.352
- GE-HTS (OXPHOS gene expression; [5]): −0.558
- nucOX (nuOXPHOS transcripts; [5]): −0.585
- mitoOX (mtOXPHOS transcripts; [5]): −0.355
- cyt c (cytochrome c; [5]): 0.539
- Viability (C2C12 myotubes; [5]): 0.042
- MTT [2, 5]: −0.142
